Laboratory results from patent US10561658B2, “Thieno- and pyrrolopyrimidine analogues as anticancer agents and methods of use thereof” (UNIVERSITY OF MARYLAND, BALTIMORE COUNTY, priority 2015, dated 2020).
In brackets after ≈: the same amount, converted by molar mass. Where two headings read alike, the source gives them in different places.

Key:
[1] = test system: Escherichia coli ATCC 25922; assay: Antimicrobial growth inhibition, E. coli; format: cell-based; conditions: ATCC25922; Escherichia coli ATCC 25922, 100 μM
Method: (§1) Evaluation of antimicrobial activity in vitro. Compounds were tested against the following panel of bacteria and fungi purchased from the American Type Culture Collection (ATCC). Briefly, bacteria were grown to mid-log phase, diluted with fresh medium to an optical density at 600 nm (OD600) of 0.030-0.060 and then diluted again 1:10. This suspension (195 μL) was added to wells in a 96 well microtiter plate (Sarstedt) and 5 μL of compound dissolved in DMSO was added to give a final concentration of 100-0.1 μM at 2.5% DMSO by volume. A DMSO negative control and standard antibiotic positive controls were included in each plate. All compounds were tested in triplicate for each concentration. Plates were sealed with parafilm, placed in a Ziploc bag to prevent evaporation, and incubated at 30° C. (fungi) or 37° C. (bacteria) for 16-20 hours (48 hours for C. neoformans). The OD600 values for each well were determined with a plate reader (Biotek, EL800) and the data were standardized to the DMSO control wells after subtracting the background from blank medium. Initial single concentrations were tested at 100 μM and active compounds were further tested with at least nine concentrations for a full dose response. Dose response curves were generated using GraphPad Prism 5 software and used to determine the MIC95 concentrations (minimal concentration that inhibits 95% of growth). Compounds 1, 2, 5 and 19 were screened for growth inhibition activity against a panel of bacteria and fungi at a concentration of 100 as shown in Table 2. Compound 5 was included to test the importance of the C4-Cl substituent for activity across a broader range of biological systems.

[2] = test system: murine leukemia L1210 cells; assay: Cell proliferation assay, L1210; format: cell-based; conditions: Mus musculus
Method: Cell proliferation assays for several of the compounds were performed on L1210, a mouse lymphocytic leukemia cell line; CCRF-CEM [39] an acute lymphoblastic leukemia cell line; and HeLa, a human cancer cell line derived from a human cervical adenocarcinoma. Murine Leukemia L1210, human lymphocytic CEM and human cervix carcinoma HeLa cells were obtained from the American Type Culture Collection (ATCC) (Rockville, Md.). All assays were performed in 96-well microtiter plates. To each well were added (5-7.5)×10^4 tumor cells and a given amount of the test compound. The cells were allowed to proliferate for 48 h (murine leukemia L1210 cells) or 72 h (human lymphocytic CEM and human cervix carcinoma HeLa cells) at 37° C. in a humidified CO2-controlled atmosphere. At the end of the incubation period, the cells were counted in a Coulter counter. The IC50 (50% inhibitory concentration) was defined as the concentration of the compound that inhibited cell proliferation by 50%. […] Presence of C7 iodine on the 2,4-dichloro pyrrolo[3,2-d] (compound 20) increases the anticancer activity by a factor of 5 when compared to compound 19. […] This alludes to a) importance of C7-I towards activity against cancer cell lines for the 2,4-O-benzylated analogues (15 and 16).

[3] = test system: NCI-60 human tumor cell lines; assay: NCI60 human tumor cell line screen; format: cell-based; conditions: NCI60, FIG. 4
Method: Lead compounds 1, 2 and 19 were evaluated for anti-cancer activity at nM to uM concentrations in cellular screens.
The lead halogenated pyrrolopyrimidines and thienopyrimidines of the present invention were tested in the human cell line screen which is composed of 60 different human tumor cell lines (NCI-60) representing leukemia, melanoma, lung cancer, colon cancer, brain cancer, ovary cancer, breast cancer, prostate cancer and kidney cancer. Testing specifics can be found at the National Cancer Institute at http://dtp.nci.nih.gov/branches/btb/ivelsp.html. Compounds 1, 2 and 19 were testing initially at a single dose (10^−5M) in the full cell panel. The results of the one-dose are reported as a mean graph of the percent of the growth of the treated cells. Both growth inhibition (values between 0 and 100) and lethality (values less than 0) are detectable. To evaluate the test results, a value of 100 means no growth inhibition. A value of 40 would mean 60% growth inhibition. A value of zero means no net growth over the course of the experiment. A value of −40 means 40% lethality and a value of −100 means all the cells are dead.

[4] = test system: Candida albicans ATCC 10231; assay: Antifungal growth inhibition and MIC95, C. albicans; format: cell-based; conditions: ATCC10231; for inhibition at 100 µM: Candida albicans ATCC 10231, 100 μM; for MIC: Candida albicans, C. albicans ATCC 10231, minimum concentration for inhibition by 95%
Method: as §1
(§2) Compounds 1 and 2 were further tested against the susceptible fungal strains to determine the MIC95 values.

[5] = test system: Staphylococcus aureus subsp. aureus (MRSA) ATCC 43300; assay: Antimicrobial growth inhibition, S. aureus (MRSA); format: cell-based; conditions: Staphylococcus aureus (MRSA) ATCC 43300, 100 μM
Method: as §1

[6] = test system: Bacillus subtilis ATCC 6633; assay: Antimicrobial growth inhibition, B. subtilis; format: cell-based; conditions: ATCC6633; Bacillus subtilis ATCC 6633, 100 μM
Method: as §1

L1210 leukemia cell line = assay: Apoptosis analysis (annexin V staining), L1210; format: cell-based, mouse; conditions: for cells undergoing apoptosis (annexin V): L1210, 1 μM, 48 h
Method: FIGS. 5 A and B contains apoptosis analysis (annexin V staining) in the L1210 leukemia cell line relating to compounds 1 (ii), 2 (iii) and 19 (iv) relative to a control (i). After incubation with 1 μM compound (1) for 48 h, 60% of the cells were observed undergoing apoptotic cell death, with the vast majority of these in early apoptosis (FIG. 5A (ii)).
Many antineoplastic compounds arrest cell proliferation by activating specific checkpoints that block progression through the cell cycle. To test whether compounds 1 or 2 inhibited cell proliferation by this mechanism, their effects on L1210 cell cycle distributions were monitored using propidium iodide staining and flow cytometry (FIG. 7). Cell cycle and apoptosis studies were conducted on L1210, a mouse lymphocytic leukemia cell line obtained from the American Type Culture Collection and grown in Dulbecco's Modified Eagle's Medium (DMEM) plus 10% fetal bovine serum (FBS). 2×10^6 cells were seeded in 100 mm dishes and treated with vehicle alone or compounds 1 or 2 at the IC50 values determined by cell viability assays or an equivalent volume of DMSO. At 24 and 48 h following treatment the cells were collected, fixed, and stained with propidium iodide (Sigma Aldrich) immediately before analysis by flow cytometry. Vehicle-treated cells were largely confined to G1 and S phases, with very small (<5%) subpopulations in the G2/M phase or showing sub-(<G1) or super-genomic (>G2) DNA content.

Cryptococcus neoformans = assay: Antifungal growth inhibition and MIC95, C. neoformans strains; format: cell-based
Method: as §1, §2

[7] = FIG. 7 concentration, said in b126 to be the IC50 from cell viability assays, read-out: IC50 concentration used for L1210 cell cycle analysis
[8] = ATCC66031, Cryptococcus neoformans ATCC 66031, 100 μM
[9] = C. neoformans B4546, minimum concentration for inhibition by 95%
[10] = C. neoformans JEC20, minimum concentration for inhibition by 95%
[11] = C. neoformans VANC-R265, 100 μM

Compound	inhibition at 100 µM [1] [%]	IC50 [2, 7] [µM]	activity against non-small cell lung and CNS cancers [3]	anti-cancer activity against melanoma, breast, colon and renal cancers [3]	inhibition at 100 µM [4] [%]	MIC [4] [µM]	inhibition at 100 µM [5] [%]	inhibition at 100 µM [6] [%]	cells undergoing apoptosis (annexin V) (L1210 leukemia cell line) [%]	inhibition at 100 µM (Cryptococcus neoformans; [8]) [%]	inhibition at 100 µM (Cryptococcus neoformans; C. neoformans B4546, 100 μM) [%]	MIC (Cryptococcus neoformans; [9]) [µM]	inhibition at 100 µM (Cryptococcus neoformans; C. neoformans JEC20, 100 μM) [%]	MIC (Cryptococcus neoformans; [10]) [µM]	inhibition at 100 µM (Cryptococcus neoformans; [11]) [%]	Annexin V positive cells (L1210 leukemia cell line; L1210, 5.4 μM) [%]	cells consistent with late apoptosis (L1210 leukemia cell line; L1210, 5.4 μM) [%]	IC50 ([2]; 48 h proliferation, Coulter counter, read-out: IC50 L1210) [µM]
Clc1nc(Cl)c2sccc2n1 [Compound 1, 2,4-Dichlorothieno[3,2-d]pyrimidine]	< 43	0.32	little or no activity	selective activity	99	23.4 (≈ 4.8 µg/mL)	< 43	43	60	101	96	34.6 (≈ 7.1 µg/mL)	100	16.6 (≈ 3.4 µg/mL)	93			
Clc1nc(Cl)c2scc(Br)c2n1 [Compound 2, 7-Bromo-2,4-dichlorothieno[3,2-d]pyrimidine]	< 43	5.4	little or no activity	selective activity	99	10.7 (≈ 3.04 µg/mL)	< 43	< 43		55	82	7 (≈ 1.99 µg/mL)	91	5.8 (≈ 1.65 µg/mL)	67	55	40	
Clc1nc(Cl)c2[nH]ccc2n1 [Compound 19, 2,4-Dichloropyrrolo[3,2-d]pyrimidine]	< 43		little or no activity	selective activity	< 43		< 43	< 43	85	< 43	< 43		< 43		< 43			6.8 ± 2.8
